Results published in patent US20120316105A1, “Polymyxin Derivates Useful As Antibacterial Agents” (priority 2011, published 2012).
Bridge positions count the residues as written; N and C are the ends. Square brackets hold non-standard residues; d marks the D form. Peptide text beside a SMILES is read from it. * marks the point of attachment. X30 = O=C(c1ccc(Cl)c(-c2ccccc2)c1)*; X32 = N#Cc1cc(C(=O)*)ccc1-c1ccccc1; X12 = O=C(c1cccc(-c2ccccc2F)c1)*; X23 = O=C(c1cnnc(-c2ccccc2)c1)*; Dab = NCC[C@H](N)C(=O)O; Dap = NC[C@H](N)C(=O)O

Tests used:
[1] = test system: PA-1646, polymyxin-resistant clinical isolate of Pseudomonas aeruginosa; format: cell-based; conditions: PA-1646, polymyxin-resistant clinical isolate of
Procedure: (§1) Minimum bactericidal concentration (MBC, mg/L), minimum inhibitory concentration (MIC, mg/L), and human renal proximal tubule epithelial cell line cytotoxicity concentration 50% (hRPTEC, TC50, micromolar) for compounds of Formula I are listed in Table 2. The compounds of Formula I were tested as the corresponding trifluoroacetate salt except for Example 1 which was tested as the sulfate salt. For Table 2 below: PMB=polymyxin B as the sulfate salt (Bedford Laboratories, pharmaceutical grade); PMB1=polymyxin B1 as the trifluoroacetate salt; Nona=polymyxin B nonapeptide as the trifluoroacetate salt. PMB1 and Nona were prepared using the solid phase methodology described in the experimental section herein.
(§2) The in vitro antibacterial activity of compounds of Formula I was evaluated by MIC testing according to Clinical and Laboratory Standards Institute (CLSI). See: Clinical and Laboratory Standards Institute. Methods for Dilution Antimicrobial Susceptibility Tests for Bacteria that Grow Aerobically; Approved Standard-Eighth Edition. CLSI document M7-A8 [ISBN 1-56238-689-1]. Clinical and Laboratory Standards Institute, 940 West Valley Road, Suite 1400, Wayne, Pa. 19087-1898 USA, 2006; also Clinical and Laboratory Standards Institute. Performance Standards for Antimicrobial Susceptibility Testing; Twentieth Informational Supplement. CLSI document M100-S20 [ISBN 1-56238-716-2]. Clinical and Laboratory Standards Institute. Methods for Determining Bactericidal Activity of Antimicrobial Agents; Approved Guideline. CLSI document M26-A (ISBN 1-56238-384-1). CLSI, 940 West Valley Road, Suite 1400, Wayne, Pa. 19087-1898 USA, 1999.
PA-1646 is a polymyxin-resistant clinical isolate of Pseudomonas aeruginosa obtained from JMI labs (www.jmilabs.com);

[2] = Cytotoxicity assay (LDH release), hRPTEC; format: cell-based, human; conditions: human
Procedure: as §1
Human Renal Proximal Tubule Epithelial cells (hRPTEC) were obtained from Lonza (Walkersville, Md., USA) and cultured in REGM (Renal Epithelial Cell Basal Medium supplemented with human epithelial growth factor, hydrocortisone, epinephrine, insulin, triiodothyronine, transferrin, gentamycin/amphotericin-B, and fetal bovine serum). The hRPTEC cells were seeded into 96-well plates and incubated at 37° C. in 5% CO2. Following a growth period of 72 hours, cells were treated with compounds at 100, 67, 44, 30, 20 and 13 micromolar for 24 hours at 37° C. in 5% CO2. The cell supernatant was then harvested for determination of LDH (lactate dehydrogenase) production. The Cytotoxicity Detection Kit from Roche was used for the measurement of LDH activity released from damaged cells. The Toxic Concentration 50% (TC50, micromolar) values were determined for each compound and compared to the control compounds (polymyxin B was used as a positive control and polymyxin B nonapepetide was used as negative control).

[3] = test system: EC-1, mouse virulent strain of Escherichia coli; format: cell-based; conditions: E. coli EC-1; overnight incubation, lower of duplicate values; trifluoroacetate salt (Example 1 and PMB sulfate)
Procedure: as §1, §2
(§3) The MIC determination is a standard laboratory method for evaluating the antibacterial activity of a compound. The MIC represents the lowest drug concentration that inhibits visible growth of bacteria following overnight incubation. […] Typically, the drug concentration range is broken down into 2-fold increments (e.g. 0.06 mg/L, 0.12 mg/L, 0.25 mg/L, 0.50 mg/L, 1.0 mg/L, etc.) and the various drug concentrations are all individually incubated overnight with approximately the same number of bacteria. The MIC is then determined by visually inspecting the drug effect at each concentration, and identifying the lowest drug concentration that has inhibited bacterial growth as compared to the drug free control. Typically, bacteria continue to grow at drug concentrations lower than the MIC and don't grow at concentrations at and above the MIC.
(§4) The MIC values described in Table 2 below were derived from assays wherein each test compound was evaluated in duplicate. In cases where the duplicate values varied by 0-2-fold, the lower of the two values was reported below. Generally speaking, if the duplicate values varied by more than 2-fold, the assay was considered non-valid and was repeated until the variation between duplicate runs was ≦2-fold. In line with the CLSI guidelines referred to above, both control organisms and reference compounds were utilized in each MIC assay to provide proper quality control. MIC values generated with these control organisms and reference compounds were required to fall within a defined range for the assay to be considered valid and be included herein. Those skilled in the art will recognize that MIC values can and do vary from experiment to experiment. Generally speaking, it should be recognized that MIC values often vary +/−2-fold from experiment to experiment. While a single MIC is reported for each compound and each microorganism, the reader should not conclude that each compound was only tested once. Several of the compounds were subjected to multiple tests. The data reported in Table 2 is reflective of the compounds relative activity and different MICs may have been generated on these occasions in line with the guidelines described above.
The following bacterial strains were used in these MIC determinations:
EC-1 is a mouse virulent strain of Escherichia coli.

[4] = test system: AB-1649, polymyxin-resistant clinical isolate of Acinetobacter baumannii; format: cell-based; conditions: AB-1649, polymyxin-resistant clinical isolate of
Procedure: as §1, §2
AB-1649 is a polymyxin-resistant clinical isolate of Acinetobacter baumannii obtained from JMI labs (www.jmilabs.com);

[5] = test system: PA-1646, polymyxin-resistant clinical isolate of Pseudomonas aeruginosa; format: cell-based; conditions: PA-1646, polymyxin-resistant clinical isolate of; remark: listed apart in the source
Procedure: as §1, §2, §3, §4
(§5) The following bacterial strains were used in these MIC determinations: […]

[6] = test system: AB-3167, clinical isolate of Acinetobacter baumannii; format: cell-based; conditions: AB-3167, clinical isolate of
Procedure: as §1, §2, §3, §4, §5

[7] = test system: AB-1649, polymyxin-resistant clinical isolate of Acinetobacter baumannii; format: cell-based; conditions: AB-1649, polymyxin-resistant clinical isolate of; remark: listed apart in the source
Procedure: as §1, §2, §3, §4, §5

[8] = test system: Pseudomonas aeruginosa strain PA01; format: cell-based; conditions: strain
Procedure: as §1, §2, §3, §4, §5

Structure (SMILES) | PA-1646 MBC [1] [µg/mL] | CC50 at 24 h [2] [µM] | EC-1 MIC [3] [µg/mL] | AB-1649 MBC [4] [µg/mL] | PA-1646 MIC [5] [µg/mL] | AB-3167 MIC [6] [µg/mL] | AB-1649 MIC [7] [µg/mL] | PA01 MIC [8] [µg/mL]
CC(C)C[C@@H]1NC(=O)[C@@H](Cc2ccccc2)NC(=O)[C@H](CCN)NC(=O)[C@@H](NC(=O)[C@H](CN)NC(=O)[C@@H](NC(=O)[C@H](CCN)NC(=O)c2ccc(-c3ccccc3)c(C#N)c2)[C@@H](C)O)CCNC(=O)[C@H]([C@@H](C)O)NC(=O)[C@H](CCN)NC(=O)[C@H](CCN)NC1=O [Example 8] (X32-[Dab]T[Dap][Dab][Dab][dF]L[Dab][Dab]T; lactam 4-C) | 4 | 32 | 0.5 | 1 | 2 | 0.25 | 1 | 1
CC(C)C[C@@H]1NC(=O)[C@@H](Cc2ccccc2)NC(=O)[C@H](CCN)NC(=O)[C@@H](NC(=O)[C@H](CN)NC(=O)[C@@H](NC(=O)[C@H](CCN)NC(=O)c2cccc(-c3ccccc3F)c2)[C@@H](C)O)CCNC(=O)[C@H]([C@@H](C)O)NC(=O)[C@H](CCN)NC(=O)[C@H](CCN)NC1=O [Example 9] (X12-[Dab]T[Dap][Dab][Dab][dF]L[Dab][Dab]T; lactam 4-C) | 2 | 24 | 0.25 | 2 | 2 | 0.25 | 1 | 0.5
CC(C)C[C@@H]1NC(=O)[C@@H](Cc2ccccc2)NC(=O)[C@H](CCN)NC(=O)[C@@H](NC(=O)[C@H](CN)NC(=O)[C@@H](NC(=O)[C@H](CCN)NC(=O)c2ccc(Cl)c(-c3ccccc3)c2)[C@@H](C)O)CCNC(=O)[C@H]([C@@H](C)O)NC(=O)[C@H](CCN)NC(=O)[C@H](CCN)NC1=O [Example 10] (X30-[Dab]T[Dap][Dab][Dab][dF]L[Dab][Dab]T; lactam 4-C) | 1 | 14 | 0.25 | 1 | 0.5 | 0.5 | 1 | 1
CC(C)C[C@@H]1NC(=O)[C@@H](Cc2ccccc2)NC(=O)[C@H](CCN)NC(=O)[C@@H](NC(=O)[C@H](CN)NC(=O)[C@@H](NC(=O)[C@H](CCN)NC(=O)c2cnnc(-c3ccccc3)c2)[C@@H](C)O)CCNC(=O)[C@H]([C@@H](C)O)NC(=O)[C@H](CCN)NC(=O)[C@H](CCN)NC1=O [Example 11] (X23-[Dab]T[Dap][Dab][Dab][dF]L[Dab][Dab]T; lactam 4-C) | 8 | 84 | 0.125 | 4 | 2 | 0.25 | 2 | 0.25
